# Activity calls are given as the source filed them. No cut-off for these calls is given here.
# Legend:
# [1] = Toxicity in Kunming mouse implanted with mouse H22 cells assessed as change in body weight at 10 mg/kg, iv administered for 7 consecutive days starting from day 11 post inoculation and measured after 18 days (reference value: 5.2 %); type: organism-based; conditions: in vivo, 192 h, time 8 day
# [2] = tested on: H22; assay: Potentiation of aspirin-induced antimetastatic activity against mouse H22 cells implanted in Kunming mouse assessed as inhibition of metastasis at 10 mg/kg, iv administered for 7 consecutive days starting from day 11 post inoculation cotreated with aspirin at 10 mg/kg and measured after 18 days relative to control; type: functional; conditions: 192 h, time 8 day
# [3] = tested on: Mus musculus; assay: Upregulation of phosphorylated p38 in Kunming mouse implanted with mouse H22 cells assessed as activation of p53 measured after 48 hrs in presence of aspirin by immunofluorescence analysis; type: functional; conditions: dose 10-30 µM
# [4] = Toxicity in Kunming mouse implanted with mouse H22 cells assessed as change in mouse body weight at 10 mg/kg, iv administered for 7 consecutive days starting from day 8 post inoculation cotreated with DFMO at 200 mg/kg and measured after 16 days (reference value: 16.2 %); type: organism-based; conditions: in vivo, 192 h, time 8 day
# [5] = Antiproliferative activity against mouse H22 cells assessed as inhibition of cell proliferation measured after 48 hrs in presence of 800 uM aspirin by MTT assay; type: functional, cell-based
# [6] = Toxicity in Kunming mouse implanted with mouse H22 cells assessed as mouse mortality during lug metastasis assay at 10 mg/kg, iv administered for 7 consecutive days starting from day 8 post inoculation and measured after 16 days; type: organism-based; conditions: in vivo, 192 h, time 8 day
# [7] = tested on: SMMC-7721; assay: Antiproliferative activity against human […] cells assessed as inhibition of cell proliferation at 100 uM measured after 48 hrs by MTT assay relative to control; type: functional
# [8] = tested on: HepG2; assay: Induction of apoptosis in human HepG2 cells assessed as activation of caspase 3 at 50 to 70 uM measured after 48 hrs by immunofluorescence assay; type: functional, cell-based; conditions: dose 50-70 µM
# [9] = tested on: HepG2; assay: Antiinvasive activity against human HepG2 cells assessed as inhibition of cell invasion measured after 48 hrs by wound healing assay; type: functional, cell-based; conditions: dose 50-70 µM
# [10] = Toxicity in Kunming mouse implanted with mouse H22 cells assessed as change in mouse body weight at 10 mg/kg, iv administered for 7 consecutive days starting from day 8 post inoculation and measured after 16 days (reference value: 21 %); type: organism-based; conditions: in vivo, 192 h, time 8 day
# [11] = Antiproliferative activity against mouse H22 cells assessed as inhibition of cell proliferation measured after 48 hrs by MTT assay; type: functional, cell-based
# [12] = tested on: Mus musculus; assay: Downregulation of Bcl-2 in Kunming mouse implanted with mouse H22 cells at 10 to 30 uM after 48 hrs in presence of aspirin by immunofluorescence analysis; type: functional; conditions: dose 10-30 µM
# [13] = tested on: H22; assay: Potentiation of DFMO-induced antimetastatic activity against mouse H22 cells implanted in Kunming mouse assessed as number of metastatic focus at 10 mg/kg, iv administered for 7 consecutive days starting from day 11 post inoculation cotreated with DFMO at 200 mg/kg and measured after 18 days (reference value: 35.1 +/- 12); type: functional; conditions: time 8 day
# [14] = tested on: HepG2; assay: Antimigratory activity against human HepG2 cells assessed as inhibition of cell migration at 50 to 70 uM in presence of aspirin measured after 48 hrs by transwell assay; type: functional, cell-based; conditions: dose 50-70 µM
smiles,measurement,setting,value
Cl.Cl.NCCCNCC(=O)NCc1cccc2c(=O)cc(-c3cccc4ccccc34)oc12,Activity,[1],3.7%
same,inhibition in vivo at 10 mg/kg,[2],59.9%
same,Activity,[3],Active
same,Activity,[4],16.7%
same,IC50,[5],21.1 µM
same,Activity,[6],Non-Toxic
same,inhibition at 100 µM,[7],87.1%
same,Activity,[8],Active
same,inhibition,[9],Dose-dependent effect
same,Activity,[10],4%
same,IC50,[11],32.1 µM
same,Activity,[12],Active
same,Activity,[13],29.3
same,inhibition,[14],Active

# From ChEMBL document CHEMBL4715719, “Synthesis and biological properties of polyamine modified flavonoids as hepatocellular carcinoma inhibitors” (Eur J Med Chem, 2016)
